According to patent US20180201592A1, “2-AMINO-1,3,4-THIADIAZINE AND 2-AMINO-1,3,4-OXADIAZINE BASED ANTIFUNGAL AGENTS” (F2G Limited, priority 2015, published 2018):

How the values were obtained:
Settings in all cases: banded MIC grade
[1] = tested on: Aspergillus terreus; test: Minimum inhibitory concentration, YAG medium; assay type: cell-based
Outline: (§1)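 Compound from a 5 mg/mL DMSO stock was further diluted in sterile water, then serially doubled in water and plated with Aspergillus spp. spores. After 24 hrs at 35° C, growth was monitored by optical density at 485 nm; MICs are given in mg/L.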

[2] = tested on: Aspergillus niger; test: Minimum inhibitory concentration, YAG medium; assay type: cell-based
Outline: as §1

[3] = tested on: Aspergillus flavus; test: Minimum inhibitory concentration, YAG medium; assay type: cell-based
Outline: as §1

[4] = tested on: C. albicans; test: Minimum inhibitory concentration, RPMI medium; assay type: cell-based
Outline: (§2)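 Compound stock was made at 5 mg/mL in DMSO, diluted in sterile water and serially doubled in water, then tested in RPMI 1640 medium. Plates were incubated 24-48 hrs at 35° C, and growth was scored as optical density at 485 nm.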

[5] = tested on: C. parapsilosis; test: Minimum inhibitory concentration, RPMI medium; assay type: cell-based
Outline: as §2

[6] = tested on: C. tropicalis; test: Minimum inhibitory concentration, RPMI medium; assay type: cell-based
Outline: as §2

[7] = tested on: A. terreus 49; test: Minimum inhibitory concentration, YAG medium; assay type: cell-based, Aspergillus terreus
Outline: as §1

[8] = tested on: A. fumigatus 210; test: Minimum inhibitory concentration, YAG medium; assay type: cell-based, Aspergillus fumigatus
Outline: (§3)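 MICs (mg/L) reflect >70% inhibition of OD485 growth versus untreated control after 24 hrs at 35° C in YAG medium, spore inoculum 1-2×10^4 cfu/mL, drug range 50-0.05 mg/L.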

[9] = tested on: Aspergillus fumigatus; test: Minimum inhibitory concentration, YAG medium; assay type: cell-based
Outline: as §3

Structure (SMILES) | MIC grade, A. TERREUS, YAG media [1] | MIC grade, A. NIGER, YAG media [2] | MIC grade, A. FLAVUS, YAG media [3] | MIC grade, C. ALBICANS, RPMI media [4] | MIC grade, C. PARAPSILOSIS, RPMI media [5] | MIC grade, C. TROPICALIS, RPMI media [6] | MIC grade, A. TERREUS 49, YAG media [7] | MIC grade, A. FUMIGATUS 210, YAG media [8] | MIC grade, A. FUMIGATUS, YAG media [9]
N#Cc1ccc(C2=NN=C(N)SC2)cc1 | 2 (2: 1-5 mg/L) | 2 (2: 1-5 mg/L) | 2 (2: 1-5 mg/L) | 1 (1: ≥20 mg/L) | 1 (1: ≥20 mg/L) | 1 (1: ≥20 mg/L) | 2 (2: 1-5 mg/L) | 2 (2: 1-5 mg/L) | 1 (1: ≥5 mg/L)
CCCCc1ccc(COCCC2=NN=C(N)SC2)cc1 | 3 (3: 0.2-1 mg/L) | 3 (3: 0.2-1 mg/L) | 3 (3: 0.2-1 mg/L) | 2 (2: 5-20 mg/L) | 2 (2: 5-20 mg/L) | 2 (2: 5-20 mg/L) | 2 (2: 1-5 mg/L) | 1 (1: ≥5 mg/L) | 1 (1: ≥5 mg/L)
COCCC1=NN=C(N)SC1 | 3 (3: 0.2-1 mg/L) | 3 (3: 0.2-1 mg/L) | 3 (3: 0.2-1 mg/L) | 1 (1: ≥20 mg/L) | 2 (2: 5-20 mg/L) | 1 (1: ≥20 mg/L) | 3 (3: 0.2-1 mg/L) | 2 (2: 1-5 mg/L) | 3 (3: 0.2-1 mg/L)
NC1=NN=C(c2ccccn2)CS1 | 1 (1: ≥5 mg/L) | 2 (2: 1-5 mg/L) | 1 (1: ≥5 mg/L) | 1 (1: ≥20 mg/L) | 1 (1: ≥20 mg/L) | 1 (1: ≥20 mg/L) | 1 (1: ≥5 mg/L) | 1 (1: ≥5 mg/L) | 1 (1: ≥5 mg/L)
NC1=NN=C(c2cccc(Cl)c2)CS1 | 1 (1: ≥5 mg/L) | 1 (1: ≥5 mg/L) | 1 (1: ≥5 mg/L) | 1 (1: ≥20 mg/L) | 1 (1: ≥20 mg/L) | 1 (1: ≥20 mg/L) | 1 (1: ≥5 mg/L) | 1 (1: ≥5 mg/L) | 1 (1: ≥5 mg/L)
COc1cccc(C2=NN=C(N)SC2)c1 | 1 (1: ≥5 mg/L) | 1 (1: ≥5 mg/L) | 1 (1: ≥5 mg/L) | 1 (1: ≥20 mg/L) | 1 (1: ≥20 mg/L) | 1 (1: ≥20 mg/L) | 1 (1: ≥5 mg/L) | 1 (1: ≥5 mg/L) | 1 (1: ≥5 mg/L)
NC1=NN=C(c2ccc(Cl)cc2)CS1 | 3 (3: 0.2-1 mg/L) | 2 (2: 1-5 mg/L) | 3 (3: 0.2-1 mg/L) | 1 (1: ≥20 mg/L) | 1 (1: ≥20 mg/L) | 1 (1: ≥20 mg/L) | 3 (3: 0.2-1 mg/L) | 2 (2: 1-5 mg/L) | 3 (3: 0.2-1 mg/L)
COc1ccc(C2=NN=C(N)SC2)cc1 | 3 (3: 0.2-1 mg/L) | 2 (2: 1-5 mg/L) | 2 (2: 1-5 mg/L) | 1 (1: ≥20 mg/L) | 1 (1: ≥20 mg/L) | 1 (1: ≥20 mg/L) | 3 (3: 0.2-1 mg/L) | 2 (2: 1-5 mg/L) | 2 (2: 1-5 mg/L)
CCCCc1ccc(OCCCCCC2=NN=C(N)SC2)cc1 | 2 (2: 1-5 mg/L) | 3 (3: 0.2-1 mg/L) | 2 (2: 1-5 mg/L) | 2 (2: 5-20 mg/L) | 3 (3: 1-5 mg/L) | 2 (2: 5-20 mg/L) | 2 (2: 1-5 mg/L) | 2 (2: 1-5 mg/L) | 1 (1: ≥5 mg/L)
Cc1cccc(C2=NN=C(N)SC2)c1 | 2 (2: 1-5 mg/L) | 2 (2: 1-5 mg/L) | 1 (1: ≥5 mg/L) | 1 (1: ≥20 mg/L) | 1 (1: ≥20 mg/L) | 1 (1: ≥20 mg/L) | 2 (2: 1-5 mg/L) | 1 (1: ≥5 mg/L) | 1 (1: ≥5 mg/L)
Cc1ccc(C2=NN=C(N)SC2)cc1 | 2 (2: 1-5 mg/L) | 3 (3: 0.2-1 mg/L) | 3 (3: 0.2-1 mg/L) | 1 (1: ≥20 mg/L) | 2 (2: 5-20 mg/L) | 1 (1: ≥20 mg/L) | 3 (3: 0.2-1 mg/L) | 3 (3: 0.2-1 mg/L) | 3 (3: 0.2-1 mg/L)
CCC(=O)OCC1=NN=C(N)SC1 | 3 (3: 0.2-1 mg/L) | 3 (3: 0.2-1 mg/L) | 3 (3: 0.2-1 mg/L) | 1 (1: ≥20 mg/L) | 3 (3: 1-5 mg/L) | 2 (2: 5-20 mg/L) | 3 (3: 0.2-1 mg/L) | 3 (3: 0.2-1 mg/L) | 3 (3: 0.2-1 mg/L)
NC1=NN=C(CC(=O)OCc2ccccc2)CS1 | 2 (2: 1-5 mg/L) | 2 (2: 1-5 mg/L) | 1 (1: ≥5 mg/L) | 1 (1: ≥20 mg/L) | 2 (2: 5-20 mg/L) | 1 (1: ≥20 mg/L) | 2 (2: 1-5 mg/L) | 1 (1: ≥5 mg/L) | 1 (1: ≥5 mg/L)
CCOC(=O)CC1=NN=C(N)SC1 | 3 (3: 0.2-1 mg/L) | 3 (3: 0.2-1 mg/L) | 2 (2: 1-5 mg/L) | 3 (3: 1-5 mg/L) | 3 (3: 1-5 mg/L) | 2 (2: 5-20 mg/L) | 3 (3: 0.2-1 mg/L) | 2 (2: 1-5 mg/L) | 2 (2: 1-5 mg/L)
COC(=O)CC1=NN=C(N)SC1 | 2 (2: 1-5 mg/L) | 2 (2: 1-5 mg/L) | 2 (2: 1-5 mg/L) | 1 (1: ≥20 mg/L) | 2 (2: 5-20 mg/L) | 1 (1: ≥20 mg/L) | 2 (2: 1-5 mg/L) | 2 (2: 1-5 mg/L) | 2 (2: 1-5 mg/L)
